In test [1] the target is Tyrosine-protein phosphatase non-receptor type 2 (Homo sapiens, UniProt P17706). In words: Inhibition of T-cell Protein Tyrosine Phosphatase (TCPTP).
Test [2] deals with T1, Tyrosine-protein phosphatase non-receptor type 1 (Homo sapiens, UniProt P18031).
T1 sequence (P18031 whole entry): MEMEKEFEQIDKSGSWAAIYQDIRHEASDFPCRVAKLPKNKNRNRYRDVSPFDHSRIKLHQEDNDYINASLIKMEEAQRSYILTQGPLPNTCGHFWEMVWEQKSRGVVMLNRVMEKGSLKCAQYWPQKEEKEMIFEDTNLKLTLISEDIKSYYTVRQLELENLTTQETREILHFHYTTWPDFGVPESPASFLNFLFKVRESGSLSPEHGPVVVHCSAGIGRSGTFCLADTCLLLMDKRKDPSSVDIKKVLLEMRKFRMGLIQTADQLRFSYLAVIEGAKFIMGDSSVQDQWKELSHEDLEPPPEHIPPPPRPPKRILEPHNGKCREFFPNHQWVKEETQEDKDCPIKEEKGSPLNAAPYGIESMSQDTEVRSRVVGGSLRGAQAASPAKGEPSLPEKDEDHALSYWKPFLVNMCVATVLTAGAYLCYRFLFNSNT
In words: Inhibition of Protein-tyrosine phosphatase 1B (PTP1B).

Test [3] addresses Receptor-type tyrosine-protein phosphatase F (Homo sapiens, UniProt P10586). Kind of test: Inhibitory potency against LAR.
Test [4] has as its target T2, M-phase inducer phosphatase 3 (Homo sapiens, UniProt P30307).
T2 sequence (P30307 whole entry): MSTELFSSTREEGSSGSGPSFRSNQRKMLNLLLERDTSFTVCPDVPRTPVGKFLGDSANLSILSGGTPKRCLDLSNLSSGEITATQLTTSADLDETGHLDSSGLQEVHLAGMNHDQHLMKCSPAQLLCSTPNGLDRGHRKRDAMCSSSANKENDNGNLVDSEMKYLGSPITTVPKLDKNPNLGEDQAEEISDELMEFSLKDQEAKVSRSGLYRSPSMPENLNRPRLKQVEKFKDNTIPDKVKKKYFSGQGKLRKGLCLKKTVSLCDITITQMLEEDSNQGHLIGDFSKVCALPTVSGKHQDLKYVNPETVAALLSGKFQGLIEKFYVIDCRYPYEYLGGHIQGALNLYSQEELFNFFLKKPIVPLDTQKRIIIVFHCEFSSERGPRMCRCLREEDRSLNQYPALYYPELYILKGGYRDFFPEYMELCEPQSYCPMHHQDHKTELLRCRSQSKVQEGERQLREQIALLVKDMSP
Kind of test: Inhibitory potency against Cell division cycle 25 degree C.

For test [5], the target named is T3, Tyrosine-protein phosphatase non-receptor type 11 (Homo sapiens, UniProt Q06124).
T3 sequence (Q06124 whole entry): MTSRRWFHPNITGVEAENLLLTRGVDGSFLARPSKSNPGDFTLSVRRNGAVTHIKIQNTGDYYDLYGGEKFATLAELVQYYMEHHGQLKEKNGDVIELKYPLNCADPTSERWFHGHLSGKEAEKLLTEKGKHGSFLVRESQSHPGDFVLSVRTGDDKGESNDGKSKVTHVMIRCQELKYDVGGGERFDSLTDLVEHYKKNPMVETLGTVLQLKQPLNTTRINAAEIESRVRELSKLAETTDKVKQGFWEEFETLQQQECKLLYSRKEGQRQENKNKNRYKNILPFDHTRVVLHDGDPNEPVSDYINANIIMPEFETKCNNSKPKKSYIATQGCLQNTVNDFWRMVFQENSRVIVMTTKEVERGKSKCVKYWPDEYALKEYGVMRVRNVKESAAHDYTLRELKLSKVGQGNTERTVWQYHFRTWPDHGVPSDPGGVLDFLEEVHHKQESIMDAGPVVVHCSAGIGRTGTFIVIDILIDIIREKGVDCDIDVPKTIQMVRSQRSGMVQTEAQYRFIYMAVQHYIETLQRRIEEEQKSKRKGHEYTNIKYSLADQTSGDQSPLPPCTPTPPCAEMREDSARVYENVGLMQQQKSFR
Kind of test: Inhibitory potency against Tyrosine phosphatase SHP2.

Test [6] deals with T4, Receptor-type tyrosine-protein phosphatase C (Homo sapiens, UniProt P08575).
T4 sequence (P08575 whole entry): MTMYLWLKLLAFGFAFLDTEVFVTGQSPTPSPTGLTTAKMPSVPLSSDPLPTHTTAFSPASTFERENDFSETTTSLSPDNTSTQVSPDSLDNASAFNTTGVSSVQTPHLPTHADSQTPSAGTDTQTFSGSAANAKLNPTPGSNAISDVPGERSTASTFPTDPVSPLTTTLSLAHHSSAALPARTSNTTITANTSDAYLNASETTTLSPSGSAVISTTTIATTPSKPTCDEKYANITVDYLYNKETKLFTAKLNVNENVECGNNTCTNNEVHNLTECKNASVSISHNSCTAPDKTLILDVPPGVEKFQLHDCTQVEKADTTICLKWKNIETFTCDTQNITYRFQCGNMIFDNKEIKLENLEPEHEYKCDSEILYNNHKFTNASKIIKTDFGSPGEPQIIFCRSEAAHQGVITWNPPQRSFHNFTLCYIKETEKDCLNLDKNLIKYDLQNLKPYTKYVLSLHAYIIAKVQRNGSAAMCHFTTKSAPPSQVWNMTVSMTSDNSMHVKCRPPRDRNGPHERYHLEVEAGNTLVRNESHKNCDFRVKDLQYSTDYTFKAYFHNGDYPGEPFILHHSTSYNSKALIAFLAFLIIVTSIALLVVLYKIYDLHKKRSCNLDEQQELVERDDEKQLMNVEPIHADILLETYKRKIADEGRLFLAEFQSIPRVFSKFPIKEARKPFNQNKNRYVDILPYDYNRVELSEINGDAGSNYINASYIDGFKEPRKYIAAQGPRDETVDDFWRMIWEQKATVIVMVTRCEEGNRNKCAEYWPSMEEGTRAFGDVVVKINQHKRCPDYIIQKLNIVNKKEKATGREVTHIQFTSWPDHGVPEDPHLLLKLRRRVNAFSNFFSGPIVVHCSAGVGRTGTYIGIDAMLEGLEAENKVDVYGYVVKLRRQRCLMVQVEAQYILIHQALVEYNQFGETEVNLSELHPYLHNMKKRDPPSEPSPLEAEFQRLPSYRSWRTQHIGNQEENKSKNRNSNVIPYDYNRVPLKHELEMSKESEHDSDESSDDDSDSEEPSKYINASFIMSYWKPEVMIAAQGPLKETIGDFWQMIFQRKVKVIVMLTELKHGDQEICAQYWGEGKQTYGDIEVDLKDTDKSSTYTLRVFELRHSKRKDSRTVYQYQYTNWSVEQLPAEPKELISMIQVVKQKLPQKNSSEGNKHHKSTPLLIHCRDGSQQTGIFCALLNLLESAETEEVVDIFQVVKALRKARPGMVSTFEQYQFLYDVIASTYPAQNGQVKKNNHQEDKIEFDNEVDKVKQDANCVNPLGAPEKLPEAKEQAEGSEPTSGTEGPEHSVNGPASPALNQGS
In words: Inhibitory potency against CD45 Phosphatase.

Each structure is given as a SMILES string.

Chain of Tyrosine-protein phosphatase non-receptor type 2 (P17706 whole entry, looked up): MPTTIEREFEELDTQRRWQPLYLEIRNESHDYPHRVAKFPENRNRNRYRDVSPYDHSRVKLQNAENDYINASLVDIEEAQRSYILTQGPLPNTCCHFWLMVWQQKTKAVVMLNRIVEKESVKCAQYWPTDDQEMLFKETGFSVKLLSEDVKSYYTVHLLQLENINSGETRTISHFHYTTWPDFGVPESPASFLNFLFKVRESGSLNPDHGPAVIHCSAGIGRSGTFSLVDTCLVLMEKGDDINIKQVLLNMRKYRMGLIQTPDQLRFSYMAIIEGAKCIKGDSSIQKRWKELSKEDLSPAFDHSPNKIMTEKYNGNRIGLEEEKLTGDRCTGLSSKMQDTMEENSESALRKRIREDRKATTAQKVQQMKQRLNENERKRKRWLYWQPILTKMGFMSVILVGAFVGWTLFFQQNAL
Chain of Receptor-type tyrosine-protein phosphatase F (P10586 whole entry): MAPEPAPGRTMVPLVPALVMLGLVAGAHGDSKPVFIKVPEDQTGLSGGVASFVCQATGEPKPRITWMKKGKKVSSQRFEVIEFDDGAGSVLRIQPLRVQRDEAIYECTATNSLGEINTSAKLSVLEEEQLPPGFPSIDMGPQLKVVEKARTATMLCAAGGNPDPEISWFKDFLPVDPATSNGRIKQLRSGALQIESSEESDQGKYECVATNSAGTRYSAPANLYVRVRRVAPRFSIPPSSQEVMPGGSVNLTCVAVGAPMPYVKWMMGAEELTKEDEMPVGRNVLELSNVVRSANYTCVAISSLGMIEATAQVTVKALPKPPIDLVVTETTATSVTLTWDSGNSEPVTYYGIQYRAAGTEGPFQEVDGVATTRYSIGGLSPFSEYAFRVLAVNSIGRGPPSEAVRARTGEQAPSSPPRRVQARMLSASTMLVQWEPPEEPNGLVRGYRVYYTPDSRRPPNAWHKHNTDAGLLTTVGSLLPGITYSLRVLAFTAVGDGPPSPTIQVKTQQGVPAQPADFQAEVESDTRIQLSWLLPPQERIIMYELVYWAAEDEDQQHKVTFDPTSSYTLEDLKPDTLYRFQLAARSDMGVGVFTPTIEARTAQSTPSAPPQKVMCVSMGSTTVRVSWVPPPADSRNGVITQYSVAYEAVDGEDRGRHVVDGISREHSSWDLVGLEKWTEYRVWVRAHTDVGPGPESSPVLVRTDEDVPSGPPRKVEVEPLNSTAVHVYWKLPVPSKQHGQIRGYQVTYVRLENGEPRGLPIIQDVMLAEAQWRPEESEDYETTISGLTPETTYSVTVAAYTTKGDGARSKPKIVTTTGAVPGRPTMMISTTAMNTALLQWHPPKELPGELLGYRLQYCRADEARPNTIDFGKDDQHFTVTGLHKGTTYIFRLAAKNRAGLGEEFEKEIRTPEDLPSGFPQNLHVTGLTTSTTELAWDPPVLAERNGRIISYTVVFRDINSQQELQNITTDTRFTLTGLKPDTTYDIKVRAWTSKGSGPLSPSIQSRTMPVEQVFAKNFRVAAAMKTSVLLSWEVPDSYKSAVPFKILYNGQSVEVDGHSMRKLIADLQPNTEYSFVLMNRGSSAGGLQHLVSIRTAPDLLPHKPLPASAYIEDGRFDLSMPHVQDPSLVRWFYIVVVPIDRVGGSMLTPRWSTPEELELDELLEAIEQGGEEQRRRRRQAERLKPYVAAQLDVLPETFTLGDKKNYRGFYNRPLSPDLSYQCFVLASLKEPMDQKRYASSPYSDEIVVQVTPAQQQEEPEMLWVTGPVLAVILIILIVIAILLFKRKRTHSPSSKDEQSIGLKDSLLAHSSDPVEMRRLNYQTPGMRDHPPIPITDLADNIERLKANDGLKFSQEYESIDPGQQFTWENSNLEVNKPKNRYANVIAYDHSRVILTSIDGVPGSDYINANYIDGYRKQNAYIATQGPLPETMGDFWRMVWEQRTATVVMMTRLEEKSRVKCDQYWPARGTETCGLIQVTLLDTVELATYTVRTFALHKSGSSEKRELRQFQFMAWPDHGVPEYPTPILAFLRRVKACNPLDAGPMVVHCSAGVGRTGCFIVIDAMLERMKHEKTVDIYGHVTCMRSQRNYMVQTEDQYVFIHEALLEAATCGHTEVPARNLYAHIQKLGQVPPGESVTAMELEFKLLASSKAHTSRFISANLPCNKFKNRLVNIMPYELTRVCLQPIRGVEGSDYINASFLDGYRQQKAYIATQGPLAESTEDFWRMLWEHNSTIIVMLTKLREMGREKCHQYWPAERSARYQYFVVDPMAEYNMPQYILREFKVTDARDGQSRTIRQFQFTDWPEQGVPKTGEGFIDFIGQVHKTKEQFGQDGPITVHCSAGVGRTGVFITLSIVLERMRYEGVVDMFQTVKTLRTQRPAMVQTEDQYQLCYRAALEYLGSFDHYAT

Consider `COC(=O)c1c(O)cccc1OCCCCNC(=O)[C@H](Cc1ccc(OCC(=O)O)c(C(=O)O)c1)NC(C)=O`, for which the inhibition constant Ki is 129 µM in test [1] and 9.4 µM in test [2].

Consider `COC(=O)c1c(O)cccc1OCCCCNC(=O)C(Cc1ccc(OC(C(=O)O)C(=O)NC2CC2)cc1)NC(=O)OC(C)(C)C` (stereo unspecified), for which the Ki in test [1] was more than 200 µM; in test [2], 8.4 µM.

For `COC(=O)c1c(O)cccc1OCCCCNC(=O)[C@H](Cc1ccc(N(CCC(=O)O)C(=O)C(=O)O)cc1)NC(=O)OC(C)(C)C`, the inhibition constant Ki in test [1] and in test [2] was more than 200 µM each time.

For the compound `COC(=O)c1c(O)cccc1OCCCCNC(=O)[C@H](Cc1ccc(OC(C)C(=O)O)c(C(=O)O)c1)NC(=O)[C@H](Cc1ccccc1)NC(=O)OC(C)(C)C` (stereo partly specified), the inhibition constant (Ki) in test [3] was more than 30 µM; in test [1] it was 1.97 µM; in test [4], more than 30 µM; in test [5], more than 30 µM; in test [2] it was 0.16 µM; in test [6], more than 30 µM.

As for `COC(=O)c1c(O)cccc1OCCCCNC(=O)[C@H](Cc1ccc(N(CC(C)C(=O)O)C(=O)C(=O)O)cc1)NC(=O)OC(C)(C)C` (stereo partly specified), the Ki in test [1] turned out to be 16.7 µM; in test [2] it was 3.2 µM.

As for `COC(=O)c1c(O)cccc1OCCCCNC(=O)[C@H](Cc1ccc(OCC(=O)O)c(C(=O)O)c1)NC(=O)OC(C)(C)C`, the Ki was more than 30 µM in test [1] and 2.1 µM in test [2].

Consider `CCC(CN(C(=O)C(=O)O)c1ccc(C[C@H](NC(=O)OC(C)(C)C)C(=O)NCCCCOc2cccc(O)c2C(=O)OC)cc1)C(=O)O` (stereo partly specified), for which the inhibition constant (Ki) in test [3] was more than 30 µM; in test [1], 9 µM; in test [4], more than 30 µM; in test [5] it was more than 30 µM; in test [2], 1.7 µM; in test [6] it was more than 30 µM.

On to `COC(=O)c1c(O)cccc1OCCCCNC(=O)[C@H](Cc1ccc(N(CC(C(=O)O)c2ccccc2)C(=O)C(=O)O)cc1)NC(=O)OC(C)(C)C` (stereo partly specified), for which the Ki in test [1] is 97.8 µM; in test [2], 15.2 µM.

On to `COC(=O)c1c(O)cccc1OCCCCNC(=O)C(Cc1ccc(OC(C(=O)O)C(=O)O)cc1)NC(=O)OC(C)(C)C` (stereo unspecified), for which the inhibition constant (Ki) in test [3] is more than 30 µM; in test [1] it was 24.8 µM; in test [4], more than 30 µM; in test [5], more than 30 µM; in test [6], more than 30 µM.

Consider `CCC(CC(=O)O)N(C(=O)C(=O)O)c1ccc(C[C@H](NC(=O)OC(C)(C)C)C(=O)NCCCCOc2cccc(O)c2C(=O)OC)cc1` (stereo partly specified), for which the inhibition constant (Ki) in test [2] is 1.8 µM.

With `COC(=O)c1c(O)cccc1OCCCCNC(=O)[C@H](Cc1ccc(OC(C)C(=O)O)c(C(=O)O)c1)NC(=O)OC(C)(C)C` (stereo partly specified), the inhibition constant Ki was found to be 273 µM in test [1] and 48.6 µM in test [2].

As to `COC(=O)c1c(O)cccc1OCCCCNC(=O)C(Cc1ccc(OC(C(N)=O)C(=O)O)cc1)NC(=O)OC(C)(C)C` (stereo unspecified), the figures for the Ki in test [1] and in test [2] were 79.5 µM and 13.8 µM, respectively.

Turning to `COC(=O)c1c(O)cccc1OCCCCNC(=O)[C@H](Cc1ccc(OCC(=O)O)cc1)NC(=O)OC(C)(C)C`, the Ki in test [1] was more than 200 µM; in test [2] it was 220 µM.

Broadly, the Ki is a measure of affinity in units of concentration, obtained from inhibition or displacement. A higher Ki goes with lower affinity.

For the origin of these results see ChEMBL document CHEMBL1145874, “Discovery and SAR of novel, potent and selective protein tyrosine phosphatase 1B inhibitors” (Bioorg Med Chem Lett, 2003).
